According to ChEMBL document CHEMBL1127438, “Substituted (S)-phenylpiperidines and rigid congeners as preferential dopamine autoreceptor antagonists: synthesis and structure-activity relationships” (J Med Chem, 1994):
pKi: −log10 of the molar value. “And” between values parts separate entries of the source, which are not always exact repeats. Equal entries are not always repeated.

Tests used:
[1] = target: T1, D(3) dopamine receptor (Homo sapiens, UniProt P35462); assay: Tested for in vitro binding affinity against cloned mammalian dopamine D3 receptor, expressed in CHO-K1 cells, using [3H]spiperone as radioligand; assay type: cell-based
[2] = target: T2, D(2) dopamine receptor (Rattus norvegicus, UniProt P61169)
Description: Affinity against striatal dopamine D2 receptors using [3H]spiperone as radioligand in rats.

[3] = tested on: Rattus norvegicus; assay: Evaluated biochemically in reserpine-pretreated habituated rats for (100 umol/kg) subcuteneous dose, Value expressed as locomotor activity (LMA); assay type: functional
[4] = target: T3, D(2) dopamine receptor (Homo sapiens, UniProt P14416); assay: biochemical
Description: In vitro binding affinity against cloned mammalian dopamine D2 autoreceptor, expressed in CHO-K1 cells, using [3H]U-86170 as radioligand

[5] = target: T3, D(2) dopamine receptor; assay: biochemical; remark: listed apart in the source
Description: (§1) Affinity against recombinant dopamine receptor (DA) D2 expressed in CHO-K1 cells, using [3H]-spiperone as radioligand

[6] = species on record: Rattus norvegicus; assay: Compound was tested in vio for concomitant ability to antagonize the locomotor activity of rat induced by Di-Pr-5,6-ADTN, Value expressed as locomotor activity (LMA), % of control; assay type: functional; set-up: scale not given: the % may be the effect or the level left
[7] = tested on: Rattus norvegicus; assay: Effect of (60 min after administration of 200 (uM/kg) subcuteneous dose on DA release in brain dialysis model of rat striatum; Values expressed as percent of saline controls; assay type: functional
[8] = tested on: Rattus norvegicus; assay: Tested in vivo for its ability to displace DA receptor agonist (Di-Pr-5,6-ADTN) from rat striatal binding sites at 0.25 uM/Kg sc. dose (after subtraction of cerebellum levels); assay type: functional
[9] = tested on: Rattus norvegicus; assay: Evaluated for DOPAC level in nonpretreated habituated rats after subcuteneous dose of 100 micro mol/kg in rat striatum; assay type: functional
[10] = species on record: Rattus norvegicus; assay: Tested in vio for concomitant ability to antagonize the locomotor activity of rat induced by Di-Pr-5,6-ADTN, Value expressed as locomotor activity (LMA), % of control; assay type: functional; set-up: scale not given: the % may be the effect or the level left
[11] = tested on: Rattus norvegicus; assay: Evaluated biochemically in nonpretreated habituated rats for (100 uM/kg) subcuteneous dose, Value expressed as locomotor activity (LMA); assay type: functional
[12] = tested on: Rattus norvegicus; assay: Compound is evaluated for DOPAC level in nonpretreated habituated rats after subcuteneous dose (100 micro mol/kg) in rat striatum; value expressed as percent of saline controls; assay type: functional
[13] = tested on: Rattus norvegicus; assay: Evaluated biochemically in nonhabituated rats for (100 umol/kg) subcuteneous dose, Value expressed as locomotor activity (LMA); assay type: functional
[14] = tested on: Rattus norvegicus; assay: Evaluated biochemically in reserpine-pretreated habituated rats for (100 umol/kg) subcuteneous dose in rat striatum (DOPAacc), Value expressed as counts/30 min; assay type: functional
[15] = species on record: Rattus norvegicus; assay: Compound is tested for concomitant ability to antagonize the locomotor activity induced by Di-Pr-5,6-ADTN; assay type: functional
[16] = tested on: Rattus norvegicus; assay: Compound is tested for its ability to displace (Di-Pr-5,6-ADTN) at […] of subcutaneous dose from rat striatal binding sites in vivo; assay type: functional
[17] = target: T2, D(2) dopamine receptor; assay: Tested for affinity against cloned mammalian dopamine autoreceptor (DA) D2 receptors expressed in CHO-K1 cells using [3H]spiperone as radioligand; assay type: cell-based
[18] = target: T2, D(2) dopamine receptor; assay: Tested for affinity against striatal dopamine autoreceptor (DA) D2 receptors using [3H]spiperone as radioligand in rats.
[19] = tested on: Rattus norvegicus; assay: Compound is evaluated for DOPA accumulation in reserpine-pretreated habituated rats at 100 micro mol/kg of subcuteneous dose in rat striatum; assay type: functional
[20] = target: Dopamine receptor; assay: Tested for in vitro binding affinity against cloned mammalian dopamine autoreceptor (DA) receptors expressed in CHO-K1 cells using [3H]U-86170 as radioligand; assay type: cell-based
[21] = target: T1, D(3) dopamine receptor; assay: Tested for in vitro binding affinity against cloned mammalian dopamine autoreceptor (DA) receptors expressed in CHO-K1 cells [3H]-spiperone as radioligand; assay type: cell-based
[22] = tested on: Rattus norvegicus; assay: Evaluated for locomotor activity in nonpretreated habituated rats in 100 umol/kg of subcuteneous dose; assay type: functional; set-up: unit not given here
[23] = tested on: Rattus norvegicus; assay: Compound is evaluated biochemically in reserpine-pretreated habituated rats for (50 micro mol/kg) subcuteneous dose in 5-HTP; assay type: functional
[24] = tested on: Rattus norvegicus; assay: Evaluated for biochemical levels of DOPAC in nonpretreated habituated rats for subcuteneous dose of 100 micro mol/kg in rat striatum; assay type: functional
[25] = tested on: Rattus norvegicus; assay: Compound is evaluated for biochemical levels of DOPAC in nonpretreated habituated rats for subcuteneous dose of 100 umol/kg in rat striatum; assay type: functional
[26] = tested on: Rattus norvegicus; assay: Evaluated for locomotor activity in nonpretreated habituated rats at 100 umol/kg of subcuteneous dose; assay type: functional; set-up: unit not given here
[27] = tested on: Rattus norvegicus; assay: Effect (60 min after administration of 200 (micro mol/kg) subcuteneous dose on DA release in brain dialysis model of rat striatum; assay type: functional
[28] = tested on: Rattus norvegicus; assay: Compound is tested for its ability to displace Di-Pr-5,6-ADTN at […] subcutaneous dose from rat striatal binding sites in vivo; assay type: functional
[29] = tested on: Rattus norvegicus; assay: Evaluated for DOPA accumulation in nonhabituated rats at 100 umol/kg of subcuteneous dose in rat striatum; assay type: functional
[30] = tested on: Rattus norvegicus; assay: Compound is evaluated for DOPA accumulation in reserpine-pretreated habituated rats at 100 umol/kg of subcuteneous dose in rat striatum; assay type: functional
[31] = tested on: Rattus norvegicus; assay: Effect 60 min after administration of 200 (umol/kg) subcuteneous dose on DA release in rat brain dialysis model; assay type: functional
[32] = tested on: Rattus norvegicus; assay: Compound is evaluated for locomotor activity in nonhabituated rats at 100 umol/kg of subcuteneous dose; assay type: functional
[33] = tested on: Rattus norvegicus; assay: Compound is evaluated for accumulation of DOPA in nonhabituated rats at 100 umol/kg of subcuteneous dose in rat striatum; assay type: functional
[34] = tested on: Rattus norvegicus; assay: Compound is evaluated for DOPAC accumulation in nonpretreated habituated rats after subcuteneous dose of 100 micro mol/kg in rat striatum; assay type: functional
[35] = tested on: Rattus norvegicus; assay: Compound is evaluated for locomotor activity in reserpine-pretreated habituated rats for (100 umol/kg) subcuteneous dose; assay type: functional
[36] = target: T3, D(2) dopamine receptor; settings: cho-k1
Description: as §1

[37] = tested on: Rattus norvegicus; assay: Effect (60 min after administration of 200 (micro mol/kg) subcuteneous dose on DA release in brain dialysis model of rat; assay type: functional
[38] = tested on: Rattus norvegicus; assay: Evaluated for DOPA accumulation (DOPAacc) level in nonhabituated rats after subcuteneous dose (100 uM/kg) in rat striatum; assay type: functional

T2 sequence (P61169 whole entry): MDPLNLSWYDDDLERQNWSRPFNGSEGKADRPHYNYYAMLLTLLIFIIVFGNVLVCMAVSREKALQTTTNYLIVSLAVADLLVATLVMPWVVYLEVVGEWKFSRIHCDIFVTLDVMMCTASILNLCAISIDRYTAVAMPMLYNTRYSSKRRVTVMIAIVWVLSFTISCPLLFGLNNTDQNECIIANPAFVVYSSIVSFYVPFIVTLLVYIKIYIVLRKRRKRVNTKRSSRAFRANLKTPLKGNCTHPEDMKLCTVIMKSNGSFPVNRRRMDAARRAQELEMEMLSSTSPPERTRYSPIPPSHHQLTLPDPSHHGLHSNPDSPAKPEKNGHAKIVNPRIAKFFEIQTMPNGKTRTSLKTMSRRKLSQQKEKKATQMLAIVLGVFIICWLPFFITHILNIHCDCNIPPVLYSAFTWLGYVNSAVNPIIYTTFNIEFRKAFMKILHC
T3 sequence (P14416 whole entry): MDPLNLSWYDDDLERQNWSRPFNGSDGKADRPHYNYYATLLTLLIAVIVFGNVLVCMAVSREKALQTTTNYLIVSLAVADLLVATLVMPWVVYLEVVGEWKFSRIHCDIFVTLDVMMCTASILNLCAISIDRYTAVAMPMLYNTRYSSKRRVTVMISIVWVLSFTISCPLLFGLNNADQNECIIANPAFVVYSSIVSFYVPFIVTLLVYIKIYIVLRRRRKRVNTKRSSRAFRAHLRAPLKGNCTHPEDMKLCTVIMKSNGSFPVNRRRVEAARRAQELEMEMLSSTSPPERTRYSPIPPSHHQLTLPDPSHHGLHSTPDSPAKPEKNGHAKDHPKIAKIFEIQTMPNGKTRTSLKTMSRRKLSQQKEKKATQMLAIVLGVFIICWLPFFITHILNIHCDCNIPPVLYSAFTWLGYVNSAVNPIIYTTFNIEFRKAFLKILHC
T1 sequence (P35462 whole entry): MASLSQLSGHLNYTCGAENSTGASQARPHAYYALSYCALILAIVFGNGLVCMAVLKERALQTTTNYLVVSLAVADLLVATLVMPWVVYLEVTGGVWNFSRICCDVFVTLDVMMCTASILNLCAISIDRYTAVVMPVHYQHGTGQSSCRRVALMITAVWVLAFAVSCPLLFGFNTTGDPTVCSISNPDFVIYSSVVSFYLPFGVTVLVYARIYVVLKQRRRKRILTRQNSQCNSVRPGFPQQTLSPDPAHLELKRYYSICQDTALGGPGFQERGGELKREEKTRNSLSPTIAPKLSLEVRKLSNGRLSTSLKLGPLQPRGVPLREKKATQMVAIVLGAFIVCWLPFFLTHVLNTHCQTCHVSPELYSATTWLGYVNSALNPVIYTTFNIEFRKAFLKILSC

`CCCN1CCC[C@@H](c2cccc(C#N)c2)C1` gave a pKi [1] of 6.60, a pKi [2] of 5.94 and a Control [3] of 12%. For the same compound, the pKi [4] was 6.92, the pKi [5] was 6.58 and the Control [6] was 31%. It also gave an Activity [7] of 252% and a Control [8] of 66%.
Work on `CCCN1CCC[C@@H](c2cccc(C(C)=O)c2)C1` yielded an Activity [9] of 243%, a Control [10] of 81% and a pKi [1] of 5.67. The Control [11] was 824%, the pKi [2] was 5.18 and the Control [12] was 183%. For the same compound, the Control [3] was 7%, the pKi [4] was < 5.73 and the pKi [5] was < 6.66. For the same compound, the Activity [7] was 179%, the “Locomotor activity (% of control)” value [13] was 139% and the Activity [14] was 73%. The Control [8] was 44%.
With `CCCN(CCC)C1CCc2c(ccc(O)c2O)C1` (stereo not drawn) the LMA [15] was 100% and the Activity [16] was 0%.
For `CN(C)CCCN1CCC[C@@H](c2cccc(C#N)c2)C1`, the pKi [17] was < 6.66 and the pKi [18] was 5.63.
Compound `C=CCN1CCC2c3cccc(OS(=O)(=O)C(F)(F)F)c3CCC21` (stereo not drawn) has an Activity [19] of 92%, a Ki [20] of 125 nM and a pKi [21] of 7.17. The LMA [22] was 443 and 635, the pKi [5] was < 6.66 and the pKi [18] was < 6.76. The Activity [23] was 52% and the Activity [24] was 175%.
Compound `CCCN1CCC[C@@H](c2cccc(OS(=O)(=O)c3ccc(C)cc3)c2)C1` has a Ki [20] of 162 nM, a pKi [21] of 7.04 and an Activity [25] of 89%. The LMA [26] was 152, the pKi [5] was < 6.66 and the pKi [18] was 5.88.
`CCCN1CCC[C@@H](c2ccccc2)C1` showed a Ki [20] of 222 nM, a pKi [21] of 6.11 and an Activity [27] of 473%. For the same compound, the Activity [28] was 20%, the Activity [29] was 140% and the pKi [5] was < 6.66. It also gave an LMA [15] of 90%, a pKi [18] of 5.83 and an Activity [30] of 65%. The Activity [24] was 188%.
`C#Cc1cccc([C@@H]2CCCN(CCC)C2)c1` showed a Ki [20] of 334 nM, a pKi [21] of 6.47 and an Activity [31] of 265%. The LMA [26] was 671, the pKi [5] was < 6.66 and the LMA [32] was 237. It also gave a pKi [18] of 6.15, an Activity [24] of 138% and an Activity [33] of 136%.
In the case of `CCCN1CCC[C@@H](c2cccc(N)c2)C1`, the Activity [34] was 128%, the Control [11] was 113% and the pKi [2] was 5.70. The Control [3] was 72%, the pKi [5] was < 6.66 and the Activity [14] was 91%.
With `CCCN1CCC[C@@H](c2cccc(C=O)c2)C1` the Ki [20] was 20 nM, the pKi [21] was 7.08 and the LMA [26] was 208. For the same compound, the pKi [5] was 6.84, the LMA [35] was 5 and the pKi [18] was 5.95. It also gave an Activity [30] of 92% and an Activity [24] of 127%.
In the case of `C=CCN1CC[C@@H]2c3cccc(OS(=O)(=O)C(F)(F)F)c3CC[C@@H]21` (stereo in doubt; 50), the Ki [20] was > 1900 nM, the pKi [21] was < 6.30 and the LMA [22] was 148. For the same compound, the pKi [18] was < 6.76, the pKi [36] was < 6.66 and the Activity [24] was 98%.
In the case of `O=S(=O)(Oc1cccc([C@@H]2CCCN(CCc3ccccc3)C2)c1)C(F)(F)F`, the Activity [19] was 66%, the Ki [20] was 11 nM and the pKi [21] was 7.72. For the same compound, the Activity [29] was 111%, the LMA [22] was 20 and the pKi [5] was 7.14. For the same compound, the Activity [37] was 89% and the pKi [18] was 7.40.
`CCCN1CCC[C@@H](c2cccc(OS(C)(=O)=O)c2)C1` showed an Activity [38] of 249%, a pKi [1] of 6.01 and a Control [11] of 576%. It also gave a pKi [2] of 5.38, a Control [3] of 18% and a pKi [4] of 6.72. For the same compound, the pKi [5] was < 6.66, the Control [6] was 46% and the Activity [7] was 234%. For the same compound, the “Locomotor activity (% of control)” value [13] was 154%, the Activity [14] was 74% and the Control [8] was 55%.
